In patent publication US20080138403A1, “PHARMACEUTICAL DOSAGE FORMS OF OXCARBAZEPINE” (Sun Pharmaceutical Industries Ltd., priority 2006, published 2008):

What was measured:
[1] = particle size by Malvern laser diffraction; assay type: physicochemical
Description: The particle size of oxcarbazepine may be measured using laser light diffraction technique based instrument such as a Malvern Mastersizer Microplus apparatus. Other known methods of measuring particle size may also be used. The particle size distribution of oxcarbazepine was checked after subjecting the slurry of oxcarbazepine and the hydrophilic polymer in a solvent, to mixing in a colloid mill. The particle size was determined by Malvern laser diffraction technique. The particles were dispersed in an aqueous dispersion medium of Tween 20 (0.1 ml/litre).

[2] = cited from earlier work
[3] = Example 1 slurry after mixing in colloid mill, dispersed in aqueous Tween 20
[4] = oxcarbazepine used for the slurry of Example 2

In the case of `NC(=O)N1c2ccccc2CC(=O)c2ccccc21` [oxcarbazepine, 10,11-Dihydro-10-oxo-5H-dibenz [b,f]azepine-5-carboxamide], the “Particle size D (v, 0.1) 10% particles undersized” value [1, 3] is reported as 6.93 μm, the “Particle size D (v, 0.5) 50% particles undersized” value [1, 3] is reported as 20.56 μm and the “Particle size D (v, 0.91) 90% particles undersized” value [1, 3] is reported as 45.97 μm. The “median particle size D50” value [1, 4] was 24.91 μm, the “particle size D10” value [1, 4] was 6.59 μm and the “particle size D90” value [1, 4] was 63.31 μm. For the same compound, the solubility in water [2] was “practically insoluble”.
